Assay results reported in patent publication US20240132521A1, “COMPOUNDS AND METHODS FOR MODULATING HER2” (Iambic Therapeutics, Inc., priority 2022, published 2024).

Assays:
BaF3_HER2YVMA cells = BaF3_HER2YVMA cells (Homo sapiens, UniProt P04626, DUP772-775, cells depend on it); assay: Cell growth inhibition assay (CellTiterGlo), BaF3_HER2YVMA; type: cell-based; details: 3-day treatment, CellTiterGlo, read-out: Cell growth inhibition activity, HER2 - YVMA
BaF3_HER2WT cells = BaF3_HER2WT cells (Homo sapiens, UniProt P04626); assay: Cell growth inhibition assay (CellTiterGlo), BaF3_HER2WT; type: cell-based; details: 3-day treatment, CellTiterGlo, read-out: Cell growth inhibition activity, HER2 WT
[1] = target: T1, ERBB2-A775_G776insYVMA (ERBB2YVMA) (Homo sapiens, UniProt P04626, INS775YVMA); assay: HotSpot radiometric kinase activity assay, ERBB2YVMA; details: biochemical activity, 20 nM ERBB2YVMA, 10 μM 33P-ATP, 2 hours, read-out: HER2 - YVMA IC50
T1 construct: purchased SignalChem E27-13BG
Method: The purpose of the wtERBB2, ERBB2-A775_G776insYVMA (ERBB2YVMA), wtEGFR biochemical assay was to evaluate the inhibition (% inhibition and IC50 values) of the small molecule inhibitors by using the “HotSpot” radiometric kinase activity assay. HotSpot assays monitor the production of kinase substrate by the radioactive gamma phosphate of adenosine triphosphate (33P-ATP) during biochemical reactions. HotSpot assays was performed in steps upon completion of the kinase reaction: deposition of a reaction mixture aliquot onto P81 ion exchange paper, extensive washing of the aforementioned P81 paper using phosphoric acid to remove unbound radiolabeled 33P-ATP from the P81 paper, and finally visualization and quantification of the dried P81 paper utilizing a phosphoimager. […] Typical reaction solutions (10 μL, final reaction volume) contained the following buffer conditions: 20 mM Hepes (pH 7.5), 10 mM MgCl2, 1 mM EGTA, 0.01% Brij35, 0.02 mg/mL BSA, 0.1 mM Na3VO4, 2 mM DTT, 1% DMSO. The assay was primed by preparing a fresh 0.2 mg/mL solution of pEY (Sigma Cat: P7244) substrate in the reaction buffer and supplementing that solution with […] of MnCl2 as substrate cofactor (Sigma Cat: M9522). The kinase of interest was then added to the solution at the appropriate concentration (30 nM wtERBB2 from, or 20 nM ERBB2YVMA, or 4 nM wtEGFR) and gently mixed prior to delivery of compound in 100% DMSO by acoustic dispensing (Beckman Echo550). Compound, Kinase, and substrate were allowed to incubate for 20 min at room temperature prior to the initiation of the reaction by addition of 33P-ATP (PerkinElmer Cat: NEG602, final conc 10 μM). […] IC50 determinations were made from a plot of kinase activity as a function of inhibitor concentration fit to the 4-parameter IC50 equation with the enzyme concentration held constant using GraphPad Prism (San Diego).

BaF3_EGFRWT cells = BaF3_EGFRWT cells (Homo sapiens, UniProt P00533); assay: Cell growth inhibition assay (CellTiterGlo), BaF3_EGFRWT; type: cell-based; details: 3-day treatment, CellTiterGlo, read-out: Cell growth inhibition activity, EGFR WT
BaF3_EGFRWT cells, sequence (P00533 whole entry, change not shown): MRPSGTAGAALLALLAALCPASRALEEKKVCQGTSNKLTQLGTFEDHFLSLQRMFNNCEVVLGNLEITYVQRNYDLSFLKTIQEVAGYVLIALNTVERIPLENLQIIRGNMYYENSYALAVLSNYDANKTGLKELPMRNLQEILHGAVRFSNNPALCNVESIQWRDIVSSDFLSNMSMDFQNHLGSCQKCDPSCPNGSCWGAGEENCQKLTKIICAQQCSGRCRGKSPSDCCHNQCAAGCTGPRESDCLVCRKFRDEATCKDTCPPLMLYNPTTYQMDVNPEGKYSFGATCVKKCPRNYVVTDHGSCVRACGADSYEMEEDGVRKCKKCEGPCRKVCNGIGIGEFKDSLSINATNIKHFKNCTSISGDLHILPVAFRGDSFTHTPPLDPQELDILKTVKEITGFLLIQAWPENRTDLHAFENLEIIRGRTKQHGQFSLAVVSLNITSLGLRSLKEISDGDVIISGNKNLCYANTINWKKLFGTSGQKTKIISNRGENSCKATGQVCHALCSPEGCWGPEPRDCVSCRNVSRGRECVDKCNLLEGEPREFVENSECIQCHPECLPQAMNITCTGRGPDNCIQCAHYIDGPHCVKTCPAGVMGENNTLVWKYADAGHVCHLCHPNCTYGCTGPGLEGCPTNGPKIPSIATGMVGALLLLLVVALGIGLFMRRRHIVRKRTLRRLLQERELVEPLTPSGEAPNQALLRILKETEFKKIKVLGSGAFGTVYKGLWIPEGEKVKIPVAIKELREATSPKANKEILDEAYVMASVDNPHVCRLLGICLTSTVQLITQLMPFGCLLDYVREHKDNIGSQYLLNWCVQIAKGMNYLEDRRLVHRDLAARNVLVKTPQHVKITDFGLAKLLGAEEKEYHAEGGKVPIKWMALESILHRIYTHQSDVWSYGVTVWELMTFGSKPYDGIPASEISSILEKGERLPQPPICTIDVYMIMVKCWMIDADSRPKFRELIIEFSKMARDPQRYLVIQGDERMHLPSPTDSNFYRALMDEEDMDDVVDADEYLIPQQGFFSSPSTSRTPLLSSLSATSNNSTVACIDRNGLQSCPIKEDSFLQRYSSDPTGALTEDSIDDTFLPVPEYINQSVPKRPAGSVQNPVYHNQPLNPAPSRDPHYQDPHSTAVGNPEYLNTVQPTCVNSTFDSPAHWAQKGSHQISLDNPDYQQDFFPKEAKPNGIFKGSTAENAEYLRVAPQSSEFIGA

BaF3_HER2YVMA cells, sequence (P04626 with tags, fused parts or gaps DUP772-775): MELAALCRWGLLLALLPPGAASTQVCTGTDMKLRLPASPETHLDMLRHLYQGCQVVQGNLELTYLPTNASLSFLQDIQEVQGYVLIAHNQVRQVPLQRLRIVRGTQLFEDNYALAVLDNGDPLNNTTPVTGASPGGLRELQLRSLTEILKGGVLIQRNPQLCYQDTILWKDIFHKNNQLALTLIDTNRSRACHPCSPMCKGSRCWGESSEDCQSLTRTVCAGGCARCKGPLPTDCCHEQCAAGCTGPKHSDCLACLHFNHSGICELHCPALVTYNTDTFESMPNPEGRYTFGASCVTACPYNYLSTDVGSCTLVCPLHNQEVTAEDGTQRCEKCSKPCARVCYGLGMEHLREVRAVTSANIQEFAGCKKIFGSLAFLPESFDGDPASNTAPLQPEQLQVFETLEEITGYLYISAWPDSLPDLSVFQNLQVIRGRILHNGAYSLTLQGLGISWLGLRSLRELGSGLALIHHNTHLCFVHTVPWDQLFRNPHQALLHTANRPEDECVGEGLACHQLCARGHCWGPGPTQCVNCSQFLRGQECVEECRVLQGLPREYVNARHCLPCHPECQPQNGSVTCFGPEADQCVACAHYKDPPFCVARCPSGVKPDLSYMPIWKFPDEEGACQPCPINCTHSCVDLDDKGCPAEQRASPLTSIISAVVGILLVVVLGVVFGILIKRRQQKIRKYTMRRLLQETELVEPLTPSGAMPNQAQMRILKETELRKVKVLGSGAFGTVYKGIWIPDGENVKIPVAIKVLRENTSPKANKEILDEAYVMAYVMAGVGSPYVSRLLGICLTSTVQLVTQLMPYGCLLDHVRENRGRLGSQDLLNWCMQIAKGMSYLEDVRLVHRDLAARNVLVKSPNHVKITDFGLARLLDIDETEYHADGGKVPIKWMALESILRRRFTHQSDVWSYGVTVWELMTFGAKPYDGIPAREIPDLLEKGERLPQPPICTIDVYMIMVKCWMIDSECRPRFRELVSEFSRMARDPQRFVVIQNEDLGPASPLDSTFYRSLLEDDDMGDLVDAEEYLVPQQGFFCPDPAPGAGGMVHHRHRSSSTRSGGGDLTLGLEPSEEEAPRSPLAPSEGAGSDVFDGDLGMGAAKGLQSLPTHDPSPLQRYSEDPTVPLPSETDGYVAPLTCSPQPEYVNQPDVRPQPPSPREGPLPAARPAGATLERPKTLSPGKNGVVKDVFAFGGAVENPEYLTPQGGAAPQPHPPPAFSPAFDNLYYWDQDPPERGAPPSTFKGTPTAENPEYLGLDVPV
BaF3_HER2WT cells, sequence (P04626 whole entry, stated change not applied): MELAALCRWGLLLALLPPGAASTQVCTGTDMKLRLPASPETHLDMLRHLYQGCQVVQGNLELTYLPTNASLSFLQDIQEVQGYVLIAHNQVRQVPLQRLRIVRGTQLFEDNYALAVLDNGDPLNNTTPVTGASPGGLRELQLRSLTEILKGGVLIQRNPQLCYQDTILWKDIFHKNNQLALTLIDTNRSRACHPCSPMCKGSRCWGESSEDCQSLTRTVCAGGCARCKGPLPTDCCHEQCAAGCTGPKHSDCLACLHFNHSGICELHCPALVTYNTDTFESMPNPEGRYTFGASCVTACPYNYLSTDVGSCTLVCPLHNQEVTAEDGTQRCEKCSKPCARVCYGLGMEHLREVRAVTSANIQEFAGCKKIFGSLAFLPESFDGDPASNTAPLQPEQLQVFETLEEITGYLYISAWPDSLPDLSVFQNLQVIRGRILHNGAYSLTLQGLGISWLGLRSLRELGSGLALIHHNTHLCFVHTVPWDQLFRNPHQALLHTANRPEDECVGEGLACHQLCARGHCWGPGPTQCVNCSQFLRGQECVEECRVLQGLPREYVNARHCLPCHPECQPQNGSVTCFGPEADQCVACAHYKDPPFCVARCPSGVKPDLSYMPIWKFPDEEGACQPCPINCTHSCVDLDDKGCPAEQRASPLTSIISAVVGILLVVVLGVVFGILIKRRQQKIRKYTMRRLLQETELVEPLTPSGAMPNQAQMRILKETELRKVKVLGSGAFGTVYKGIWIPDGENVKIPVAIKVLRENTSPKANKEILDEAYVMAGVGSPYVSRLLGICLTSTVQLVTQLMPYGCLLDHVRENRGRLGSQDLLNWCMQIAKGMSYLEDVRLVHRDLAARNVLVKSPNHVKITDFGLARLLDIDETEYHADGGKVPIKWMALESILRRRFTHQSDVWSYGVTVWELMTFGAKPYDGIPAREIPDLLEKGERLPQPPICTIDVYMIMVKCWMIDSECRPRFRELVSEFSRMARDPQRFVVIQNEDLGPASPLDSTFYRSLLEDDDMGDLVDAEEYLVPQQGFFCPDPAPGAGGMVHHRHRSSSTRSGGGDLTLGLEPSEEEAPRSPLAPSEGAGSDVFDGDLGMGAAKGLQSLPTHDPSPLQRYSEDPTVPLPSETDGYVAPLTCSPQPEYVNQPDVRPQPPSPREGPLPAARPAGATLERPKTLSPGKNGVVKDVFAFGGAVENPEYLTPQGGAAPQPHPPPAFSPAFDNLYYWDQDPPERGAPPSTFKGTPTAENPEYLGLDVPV
T1 sequence (P04626 with tags, fused parts or gaps INS775YVMA limits assumed): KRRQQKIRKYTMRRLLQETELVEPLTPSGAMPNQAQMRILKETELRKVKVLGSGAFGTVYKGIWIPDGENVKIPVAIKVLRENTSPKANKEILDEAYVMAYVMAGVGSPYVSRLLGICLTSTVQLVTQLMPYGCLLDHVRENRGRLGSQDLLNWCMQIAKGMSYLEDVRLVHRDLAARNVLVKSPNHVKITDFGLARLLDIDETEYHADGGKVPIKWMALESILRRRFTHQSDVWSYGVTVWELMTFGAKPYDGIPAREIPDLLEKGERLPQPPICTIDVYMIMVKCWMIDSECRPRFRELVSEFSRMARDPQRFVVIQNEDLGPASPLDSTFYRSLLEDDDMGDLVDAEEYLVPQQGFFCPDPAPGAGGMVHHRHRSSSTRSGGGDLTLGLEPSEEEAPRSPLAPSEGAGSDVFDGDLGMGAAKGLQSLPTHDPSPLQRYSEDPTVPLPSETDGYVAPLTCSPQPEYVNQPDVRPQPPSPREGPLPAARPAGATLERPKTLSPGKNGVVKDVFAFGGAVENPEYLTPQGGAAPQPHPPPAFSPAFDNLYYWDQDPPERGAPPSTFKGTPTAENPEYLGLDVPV

SMILES	GI50 (BaF3_HER2YVMA cells) [nM]	GI50 (BaF3_HER2WT cells) [nM]	IC50 [1] [nM]	GI50 (BaF3_EGFRWT cells) [nM]
Cc1cc(Nc2ncnn3ccc(C4CN(C(=O)/C=C/CN(C)C)C4)c23)ccc1Oc1ccn2ncnc2c1 [Example 1, (E)-1-(3-(4-((4-([1,2,4]triazolo[1,5-a]pyridin-7-yloxy)-3-methylphenyl)amino)pyrrolo[2,1-f][1,2,4]triazin-5-yl)azetidin-1-yl)-4-(dimethylamino)but-2-en-1-one]	< 200	< 200	< 200	1500 to 5000
C=CC(=O)N1CC(n2cc(-c3ccn4ncnc(Nc5ccc(Oc6ccn7ncnc7c6)c(C)c5)c34)cn2)C1 [Example 2, 1-(3-(4-(4-((4-([1,2,4]triazolo[1,5-a]pyridin-7-yloxy)-3-methylphenyl)amino)pyrrolo[2,1-f][1,2,4]triazin-5-yl)-1H-pyrazol-1-yl)azetidin-1-yl)prop-2-en-1-one]	< 200	< 200	< 200	1500 to 5000
C=CC(=O)N1CCN(c2ccn3ncnc(Nc4ccc(Oc5ccn6ncnc6c5)c(C)c4)c23)CC1 [Example 6, 1-(4-(4-((4-([1,2,4]triazolo[1,5-a]pyridin-7-yloxy)-3-methylphenyl)amino)pyrrolo[2,1-f][1,2,4]triazin-5-yl)piperazin-1-yl)prop-2-en-1-one]	< 200	< 200	< 200	500 to 1500
C=CC(=O)N1CCC(c2ccn3ncnc(Nc4ccc(Oc5ccn6ncnc6c5)c(C)c4)c23)CC1 [Example 7, 1-(4-(4-((4-([1,2,4]triazolo[1,5-a]pyridin-7-yloxy)-3-methylphenyl)amino)pyrrolo[2,1-f][1,2,4]triazin-5-yl)piperidin-1-yl)prop-2-en-1-one]	< 200	< 200	< 200	200 to 500
C=CC(=O)N1CCCN(c2ccn3ncnc(Nc4ccc(Oc5ccn6ncnc6c5)c(C)c4)c23)CC1 [Example 8, 1-(4-(4-((4-([1,2,4]triazolo[1,5-a]pyridin-7-yloxy)-3-methylphenyl)amino)pyrrolo[2,1-f][1,2,4]triazin-5-yl)-1,4-diazepan-1-yl)prop-2-en-1-one]	< 200	< 200	< 200	500 to 1500
C=CC(=O)N1CC(c2ccn(-c3ccn4ncnc(Nc5ccc(Oc6ccn7ncnc7c6)c(C)c5)c34)n2)C1 [Example 10, 1-(3-(1-(4-((4-([1,2,4]triazolo[1,5-a]pyridin-7-yloxy)-3-methylphenyl)amino)pyrrolo[2,1-f][1,2,4]triazin-5-yl)-1H-pyrazol-3-yl)azetidin-1-yl)prop-2-en-1-one]	500 to 1500	200 to 500	< 200	1500 to 5000
C=CC(=O)N1CCCC(c2ccn3ncnc(Nc4ccc(Oc5ccn6ncnc6c5)c(C)c4)c23)C1 (stereo not drawn) [Example 12, 1-(3-(4-((4-([1,2,4]triazolo[1,5-a]pyridin-7-yloxy)-3-methylphenyl)amino)pyrrolo[2,1-f][1,2,4]triazin-5-yl)piperidin-1-yl)prop-2-en-1-one]	< 200	< 200	< 200	1500 to 5000
Cc1cc(Nc2ncnn3ccc(C4CN(C(=O)/C=C/CN5CCCCC5)C4)c23)ccc1Oc1ccn2ncnc2c1 [Example 94, (E)-1-(3-(4-((4-([1,2,4]triazolo[1,5-a]pyridin-7-yloxy)-3-methylphenyl)amino)pyrrolo[2,1-f][1,2,4]triazin-5-yl)azetidin-1-yl)-4-(piperidin-1-yl)but-2-en-1-one]	< 200	< 200	< 200	1500 to 5000
Cc1cc(Nc2ncnn3ccc(C4CN(C(=O)/C=C/CN5CCCC5)C4)c23)ccc1Oc1ccn2ncnc2c1 [Example 97, (E)-1-(3-(4-((4-([1,2,4]triazolo[1,5-a]pyridin-7-yloxy)-3-methylphenyl)amino)pyrrolo[2,1-f][1,2,4]triazin-5-yl)azetidin-1-yl)-4-(pyrrolidin-1-yl)but-2-en-1-one]	< 200	< 200	< 200	1500 to 5000
Cc1cc(Nc2ncnn3ccc(C4CCN(C(=O)/C=C/CN(C)C)C4)c23)ccc1Oc1ccn2ncnc2c1 (stereo not drawn) [Example 98, (E)-1-(3-(4-((4-([1,2,4]triazolo[1,5-a]pyridin-7-yloxy)-3-methylphenyl)amino)-pyrrolo-[2,1-f][1,2,4]triazin-5-yl)pyrrolidin-1-yl)-4-(dimethylamino)but-2-en-1-one]	200 to 500	< 200	< 200	1500 to 5000
Cc1cc(Nc2ncnn3ccc(C4CN(C(=O)/C=C/CN(C)C)C4)c23)ccc1Oc1ccc2c(c1)ncn2C [Example 101, (E)-4-(dimethylamino)-1-(3-(4-((3-methyl-4-((1-methyl-1H-benzo[d]imidazol-5-yl)oxy)phenyl)amino)pyrrolo[2,1-f][1,2,4]triazin-5-yl)azetidin-1-yl)but-2-en-1-one]	< 200	< 200	< 200	1500 to 5000
C=CC(=O)N1CCC(c2ccn3ncnc(Nc4ccc(Oc5ccc6c(c5)ncn6C)c(C)c4)c23)CC1 [Example 113, 1-(4-(4-((3-methyl-4-((1-methyl-1H-benzo[d]imidazol-5-yl)oxy)phenyl)amino)pyrrolo[2,1-f][1,2,4]triazin-5-yl)piperidin-1-yl)prop-2-en-1-one]	< 200	< 200	< 200	500 to 1500
CO[C@H]1CN(C/C=C/C(=O)N2CCC(c3ccn4ncnc(Nc5ccc(Oc6ccn7ncnc7c6)c(C)c5)c34)CC2)C[C@H]1OC [Example 169, (E)-1-(4-(4-((4-([1,2,4]triazolo[1,5-a]pyridin-7-yloxy)-3-methylphenyl)amino)pyrrolo[2,1-f][1,2,4]triazin-5-yl)piperidin-1-yl)-4-((3R,4S)-3,4-dimethoxypyrrolidin-1-yl)but-2-en-1-one]	< 200	< 200	–	1500 to 5000
CO[C@@H]1CN(C/C=C/C(=O)N2CCC(c3ccn4ncnc(Nc5ccc(Oc6ccn7ncnc7c6)c(C)c5)c34)CC2)C[C@H]1OC [Example 170, (E)-1-(4-(4-((4-([1,2,4]triazolo[1,5-a]pyridin-7-yloxy)-3-methylphenyl)amino)pyrrolo[2,1-f][1,2,4]triazin-5-yl)piperidin-1-yl)-4-((3R,4R)-3,4-dimethoxypyrrolidin-1-yl)but-2-en-1-one]	< 200	< 200	–	1500 to 5000
Cc1cc(Nc2ncnn3ccc(C4(F)CCN(C(=O)/C=C/CN(C)C)CC4)c23)ccc1Oc1ccn2ncnc2c1 [Example 175, (E)-1-(4-(4-((4-([1,2,4]triazolo[1,5-a]pyridin-7-yloxy)-3-methylphenyl)amino)pyrrolo[2,1-f][1,2,4]triazin-5-yl)-4-fluoropiperidin-1-yl)-4-(dimethylamino)but-2-en-1-one]	1500 to 5000	1500 to 5000	–	1500 to 5000
Cc1cc(Nc2ncnn3ccc(C4CCN(C(=O)/C=C/CN(C)C)CC4(F)F)c23)ccc1Oc1ccn2ncnc2c1 (stereo not drawn) [Example 176, (E)-1-(4-(4-((4-([1,2,4]triazolo[1,5-a]pyridin-7-yloxy)-3-methylphenyl)amino)pyrrolo[2,1-f][1,2,4]triazin-5-yl)-3,3-difluoropiperidin-1-yl)-4-(dimethylamino)but-2-en-1-one]	< 200	< 200	–	1500 to 5000
CNC/C=C/C(=O)N1CCC(c2ccn3ncnc(Nc4ccc(Oc5ccn6ncnc6c5)c(C)c4)c23)CC1 [Example 177, (E)-1-(4-(4-((4-([1,2,4]triazolo[1,5-a]pyridin-7-yloxy)-3-methylphenyl)amino)pyrrolo[2,1-f][1,2,4]triazin-5-yl)piperidin-1-yl)-4-(methylamino)but-2-en-1-one]	< 200	< 200	–	1500 to 5000
Cc1cc(Nc2ncnn3ccc(C(=O)NCCCN(C)C)c23)ccc1N [Example 181, 4-((4-amino-3-methylphenyl)amino)-N-(3-(dimethylamino)propyl)pyrrolo[2,1-f][1,2,4]triazine-5-carboxamide]	> 5000	1500 to 5000	–	> 5000
